The values below are quoted from earlier work in patent US20120004294A1, “ANTITUMOR COMBINATION COMBINING AVE8062 AND DOCETAXEL” (SANOFI, priority 2008, published 2012).

For the data set the following is noted: AVE8062A alone, at too high a dose (weekly doses 4.5-30 mg/m^2 studied).

SMILES strings stand for the structures.

For the compound `COc1ccc(/C=C\c2cc(OC)c(OC)c(OC)c2)cc1NC(=O)[C@@H](N)CO` [AVE8062A], the Cardiotoxicity result is reported as “cardiotoxicity was observed”.
